Converted amounts (≈) assume the structure as drawn. Like-named read-outs stand apart in the source and are kept apart here.
How the values were obtained:
[1] = system: Staphylococcus aureus X1.1; assay: MIC, standard agar-dilution assay, S. aureus X1.1; assay type: cell-based
Protocol: (§1) The MIC's in Table II were determined by standard agar-dilution assays. The MIC's in Table III were obtained using conventional broth-dilution microtiter tests.

[2] = system: Staphylococcus aureus V41; assay: MIC, standard agar-dilution assay, S. aureus V41; assay type: cell-based; conditions: Staphylococcus aureus, V41
Protocol: as §1

[3] = system: Staphylococcus aureus X400; assay: MIC, standard agar-dilution assay, S. aureus X400; assay type: cell-based
Protocol: as §1

[4] = system: Staphylococcus aureus S13E; assay: MIC, standard agar-dilution assay, S. aureus S13E; assay type: cell-based
Protocol: as §1

[5] = system: Staphylococcus epidermidis EPI1; assay: MIC, standard agar-dilution assay, S. epidermidis EPI1; assay type: cell-based
Protocol: as §1

[6] = system: Staphylococcus epidermidis 222; assay: MIC, standard agar-dilution assay, S. epidermidis 222; assay type: cell-based
Protocol: as §1

[7] = system: Streptococcus pyogenes C203; assay: MIC, standard agar-dilution assay, S. pyogenes C203; assay type: cell-based; conditions: Streptococcus pyogenes, C203
Protocol: as §1

[8] = system: Streptococcus pneumoniae Park I; assay: MIC, standard agar-dilution assay, S. pneumoniae Park I; assay type: cell-based; conditions: Streptococcus pneumoniae
Protocol: as §1

[9] = system: Streptococcus Group D X66; assay: MIC, standard agar-dilution assay, Streptococcus Group D X66; assay type: cell-based
Protocol: as §1

[10] = system: Streptococcus Group D 2041; assay: MIC, standard agar-dilution assay, Streptococcus Group D 2041; assay type: cell-based; conditions: GROUPD2041
Protocol: as §1

[11] = system: Haemophilus influenzae C.L.; assay: MIC, standard agar-dilution assay, H. influenzae C.L.; assay type: cell-based
Protocol: as §1

[12] = system: Haemophilus influenzae 76; assay: MIC, standard agar-dilution assay, H. influenzae 76; assay type: cell-based
Protocol: as §1

Escherichia coli EC14 = assay: MIC, standard agar-dilution assay, E. coli EC14; assay type: cell-based; conditions: agar-dilution, read-out: MIC
Protocol: as §1

[13] = system: Klebsiella pneumoniae X68; assay: MIC, standard agar-dilution assay, K. pneumoniae X68; assay type: cell-based; conditions: agar-dilution, read-out: MIC
Protocol: as §1

[14] = system: Pseudomonas aeruginosa X239; assay: MIC, standard agar-dilution assay, P. aeruginosa X239; assay type: cell-based; conditions: agar-dilution, read-out: MIC
Protocol: as §1

[15] = system: Streptococcus pyogenes C203; assay: Protection of mice experimentally infected with Streptococcus pyogenes C203; assay type: in vivo; conditions: Streptococcus pyogenes, doses given 1 and 4 hours postinfection, read-out: ED50
Protocol: The formula 1 compounds have shown in vivo antimicrobial activity against experimentally-induced infections in laboratory animals. When two doses of test compound were administered to mice experimentally infected with Streptococcus pyogenes C203, the activity observed was measured as an ED50 value [effective dose in mg/kg to protect 50% of the test animals: see Warren Wick, et al., J. Bacteriol. 81, 233-235 (1961)].
^a mg/kg × 2; doses given 1 and 4 hours postinfection

[16] = agar-dilution, ampicillin-sensitive strain, read-out: MIC
[17] = agar-dilution, ampicillin-resistant strain, read-out: MIC

Row | Compound | MIC [1] [µg/mL] | MIC [2] [µg/mL] | MIC [3] [µg/mL] | MIC [4] [µg/mL] | MIC [5] [µg/mL] | MIC [6] [µg/mL] | MIC [7] [µg/mL] | MIC [8] [µg/mL] | MIC [9] [µg/mL] | MIC [10] [µg/mL] | MIC (Escherichia coli EC14) [µg/mL] | MIC [13] [µg/mL] | MIC [14] [µg/mL] | ED50 ([15]; C203, oral) [mg/kg] | ED50 ([15]; C203, sc, subcutaneous) [mg/kg] | MIC [11, 16] [µg/mL] | MIC [12, 17] [µg/mL] | MIC ([9]; agar-dilution, read-out: MIC) [µg/mL] | other results
1 | CCC1OC(=O)CC(O)C(C)C(OC2OC(C)C(O)C(N(C)C)C2O)C(CCOc2ccccc2)CC(C)C(=O)C=CC(C)=CC1COC1OC(C)C(=O)C(OC)C1OC (centres unmarked) [Compound 2, 4"-Oxo-20-DH-20-O-phenyl-desmycosin] | 0.5 (≈ 0.59 µM) | 0.5 (≈ 0.59 µM) | 0.5 (≈ 0.59 µM) | 0.5 (≈ 0.59 µM) | 1 (≈ 1.18 µM) | 0.25 (≈ 0.295 µM) | 2 (≈ 2.36 µM) | 4 (≈ 4.72 µM) | 4 (≈ 4.72 µM) | 8 (≈ 9.43 µM) | > 128 | > 128 | > 128 | 85.6 | > 10 | – | – | – | MIC [11]: 64 µg/mL (≈ 75.5 µM); MIC [12]: 64 µg/mL (≈ 75.5 µM)
2 | CCC1OC(=O)CC(O)C(C)C(OC2OC(C)C(O)C(N(C)C)C2O)C(CCOc2ccccc2)CC(C)C(=O)C=CC(C)=CC1COC1OC(C)C(OS(C)(=O)=O)C(OC)C1OC (centres unmarked) [Compound 15, 4"-O-Methanesulfonyl-20-DH-20-O-Phenyl-desmycosin] | 2 (≈ 2.15 µM) | 2 (≈ 2.15 µM) | 2 (≈ 2.15 µM) | 2 (≈ 2.15 µM) | 2 (≈ 2.15 µM) | 1 (≈ 1.08 µM) | 4 (≈ 4.31 µM) | – | 16 (≈ 17.2 µM) | 32 (≈ 34.5 µM) | > 128 | > 128 | > 128 | 29.3 | > 10 | 128 (≈ 138 µM) | 128 (≈ 138 µM) | – | MIC ([8]; agar-dilution, read-out: MIC): 8 µg/mL (≈ 8.62 µM)
3 | CCC1OC(=O)CC(O)C(C)C(OC2OC(C)C(O)C(N(C)C)C2O)C(CCOc2ccccc2)CC(C)C(=O)C=CC(C)=CC1COC1OC(C)C(N=[N+]=[N-])C(OC)C1OC (centres unmarked) [Compound 25, 4"-Azido-4"-deoxy-20-DH-20-O-phenyl-desmycosin] | 4 (≈ 4.57 µM) | 4 (≈ 4.57 µM) | 4 (≈ 4.57 µM) | 4 (≈ 4.57 µM) | 4 (≈ 4.57 µM) | 4 (≈ 4.57 µM) | 8 (≈ 9.14 µM) | 8 (≈ 9.14 µM) | – | 64 (≈ 73.1 µM) | > 128 | > 128 | > 128 | 64 | > 10 | > 128 | > 128 | 16 (≈ 18.3 µM) | –
4 | CCC1OC(=O)CC(O)C(C)C(OC2OC(C)C(OC(C)=O)C(N(C)C)C2OC(C)=O)C(CCOc2ccccc2)CC(C)C(=O)C=CC(C)=CC1COC1OC(C)C(OS(=O)(=O)C(F)(F)F)C(OC)C1OC (centres unmarked) [Compound 40, 2',4'-Di-O-acetyl-20-DH-20-O-phenyl-4"-O-(trifluoromethanesulfonyl)-desmycosin] | 2 (≈ 1.88 µM) | 2 (≈ 1.88 µM) | 2 (≈ 1.88 µM) | 2 (≈ 1.88 µM) | 2 (≈ 1.88 µM) | 2 (≈ 1.88 µM) | 2 (≈ 1.88 µM) | 8 (≈ 7.5 µM) | – | – | > 128 | > 128 | > 128 | – | – | > 128 | > 128 | > 128 | MIC ([10]; agar-dilution, read-out: MIC): > 128 µg/mL
5 | CCC1OC(=O)CC(O)C(C)C(OC2OC(C)C(O)C(N(C)C)C2O)C(CCOc2ccccc2)CC(C)C(=O)C=CC(C)=CC1COC1OC(C)C(N2CCCCC2)C(OC)C1OC (centres unmarked) [Compound 42, 4"-Deoxy-20-DH-20-O-phenyl-4"-(piperidin-1-yl)desmycosin] | 4 (≈ 4.36 µM) | 4 (≈ 4.36 µM) | 4 (≈ 4.36 µM) | 2 (≈ 2.18 µM) | 4 (≈ 4.36 µM) | 2 (≈ 2.18 µM) | 2 (≈ 2.18 µM) | 2 (≈ 2.18 µM) | 16 (≈ 17.4 µM) | 32 (≈ 34.9 µM) | > 128 | > 128 | > 128 | > 100 | > 10 | > 128 | > 128 | – | –

From patent US4920103A, “Modifications of mycinose and 3-O-demethylmycinose in tylosin-type macrolides” (Eli Lilly and Company, priority 1986, dated 1990)
